Test results as given in the Bradley open melting point set (2014).
Values joined by “and” are separate entries in the source; they are usually repeats but may differ in a detail not shown here. Identical values can stand only once.

Compound `CC(CCc1ccccc1)NCC(O)c1ccc(O)c(C(N)=O)c1` (stereo not given) [Labetalol] has a melting point of 196 °C. For `Nc1c(Cl)cc(Cl)cc1Cl` [2,4,6-trichloroaniline], the melting point was 77 °C. For `Nc1ccc(O)cc1` [p-aminophenol], the melting point was 189 °C. `N#Cc1ccc(I)cc1` [4-iodobenzonitrile] gave a melting point of 126 °C. Work on `CC(C)c1cccc(C(C)C)c1` [1,3-diisopropylbenzene] yielded a melting point of -63 °C. Compound `C=C(C)C(=O)OCC` [Ethyl methacrylate] has a melting point of -75 °C. `COc1ccc(CN)cc1` [4-methoxybenzylamine] gave a melting point of -10 °C. For `Cc1cc(C)c(C)cc1C` [1,2,4,5-tetramethylbenzene], the melting point was 79 °C. In the case of `c1ccc2ccccc2c1` [Naphthalene], the melting point was 77 °C. `C=CCC1(CC(C)C)C(=O)NC(=O)NC1=O` [Butalbital] gave a melting point of 138 °C. With `[2H]C([2H])([2H])C([2H])([2H])C([2H])([2H])C([2H])([2H])C([2H])([2H])C([2H])([2H])C([2H])([2H])C([2H])([2H])C([2H])([2H])C([2H])([2H])[2H]` [(~2~H_22_)Decane] the melting point was -30 °C. Work on `CCC(C)C` [Isopentane] yielded a melting point of -160 °C. Compound `CCCCCCCC/C=CCCCCCCCCCCCC(=O)O` [erucic acid] has a melting point of 31 °C. `OC[C@H]1O[C@@](CO)(O[C@H]2O[C@H](CO)[C@@H](O)[C@H](O)[C@H]2O)[C@@H](O)[C@@H]1O` [sucrose] showed a melting point of 188 °C. Work on `C1CNCCN1` [piperazine, anhydrous] yielded a melting point of 110 °C. With `O=C1CCC(=O)CC1` [1,4-cyclohexanedione] the melting point was 78 °C. For `CC(C)CCCC(C)C1CCC2C3CC=C4CC(Cl)CCC4(C)C3CCC12C` (stereo not given) [3-chlorocholest-5-ene], the melting point was 93 °C. With `CC(C)(C)OC(=O)NCC(=O)O` [N-boc-glycine] the melting point was 89 °C. `COc1cc(C(=O)NN)ccc1O` [vanillic acid hydrazide] showed a melting point of 211 °C. In the case of `NC(=O)c1sccc1N` [3-aminothiophene-2-carboxamide], the melting point was 121 °C. `Cc1ccc(I)cc1` [4-iodotoluene] showed a melting point of 34 °C. With `O=C4\C=C2/[C@]([C@H]1CC[C@@]3([C@@H](C(=O)C)CC[C@H]3[C@@H]1CC2)C)(C)CC4` [progesterone] the melting point was 131 °C and 130 °C. With `Clc1ccc(-c2ccccc2)cc1` [4-chlorobiphenyl] the melting point was 78 °C. `Clc1ccc(C(c2ccccc2Cl)C(Cl)(Cl)Cl)cc1` (stereo not given) [2,4'-DDT] showed a melting point of 75 °C. Work on `O=[N+]([O-])c1ccc(Cl)cc1` [4-Chloronitrobenzene] yielded a melting point of 83.5 °C. Compound `NC(c1ccccc1)c1ccccc1` [benzhydrylamine] has a melting point of 12 °C. Compound `CC(=O)/C(=N/Nc1ccc(Cl)cc1)C(=O)C(F)(F)F` has a melting point of 125 °C. `N#Cc1cccc(O)c1` [3-hydroxybenzonitrile] gave a melting point of 80 °C. With `O=[N+]([O-])c1ccc(Cl)cc1` [1-Chloro-4-nitrobenzene] the melting point was 83.6 °C. `C=CCCCC` [1-hexene] showed a melting point of -140 °C. For `O=C1C=C(/C=C/c2ccccc2)CCC1` [3-[(E)-2-phenylethenyl]cyclohex-2-en-1-one], the melting point was 66 °C. For `O=C(O)c1cc([N+](=O)[O-])ccc1Cl` [2-chloro-5-nitrobenzoic acid], the melting point was 166 °C. `Nc1cn[nH]c1` [4-amino-1h-pyrazole] gave a melting point of 75 °C. Compound `O=C(O)c1cccc(Br)c1` [3-bromobenzoic acid] has a melting point of 156 °C. In the case of `CC(=O)OC1(C(C)=O)CCC2(C)C(CCC3C4CCCC4(C)CCC32)C1` (stereo not given) [3-acetylandrostan-3-yl acetate], the melting point was 165 °C. `CCCCCCCCC(C)=O` [2-decanone] gave a melting point of 3 °C. In the case of `CCCCCCCCCCCCOP(=O)(O)O` [mono-n-dodecyl phosphate], the melting point was 42 °C. `c1ccc2nc3ccccc3cc2c1` [acridine] showed a melting point of 109 °C. In the case of `Brc1cccc(Br)c1` [1,3-dibromobenzene], the melting point was -7 °C. With `O=C(CBr)c1ccc2ccccc2c1` [2-(bromoacetyl)naphthalene] the melting point was 83 °C. With `NC(Cc1cc(I)c(Oc2cc(I)c(O)c(I)c2)c(I)c1)C(=O)O` (stereo not given) [Dextrothyroxine] the melting point was 236 °C. `COc1ccc(C=O)cc1` [4-methoxybenzaldehyde] showed a melting point of 1 °C. In the case of `c1ccc(CN(Cc2ccccc2)Cc2ccccc2)cc1` [tribenzylamine], the melting point was 93 °C. Work on `ClCc1c2ccccc2cc2ccccc12` [9-(chloromethyl)anthracene] yielded a melting point of 140 °C. Work on `CC(C)(C)c1ccc(C2CCC3(CC2)Cc2ccc(C(=O)Nc4ccccc4OCCCC(=O)O)cc2C3)cc1` (stereo not given) yielded a melting point of 147 °C. For `CCc1ccc2c(c1)C(=O)c1ccccc1C2=O` [2-Ethylanthraquinone], the melting point was 109 °C. Compound `COc1ccc(Nc2ccc(OC)cc2)cc1` [4,4'-dimethoxydiphenylamine] has a melting point of 102 °C. With `Cc1c(N=C=O)cccc1N=C=O` [toluene-2,6-diisocyanate] the melting point was 13 °C. `COc1ccc([N+](=O)[O-])cc1` [4-nitroanisole] showed a melting point of 52 °C. `O=c1cc(-c2ccccc2)oc2c1ccc1ccccc12` [alpha-naphthoflavone] gave a melting point of 158 °C. In the case of `CCCC(=O)c1cc2ccccc2oc1=O` [3-butyrylcoumarin], the melting point was 94 °C. With `COc1ccc([N+](=O)[O-])cc1` [1-Methoxy-4-nitrobenzene] the melting point was 48 °C. With `c1ccc2c(c1)CCCC2` [1,2,3,4-Tetrahydronaphthalene] the melting point was -31 °C. `Cc1nnc(SCC2=C(C(=O)O)N3C(=O)[C@@H](NC(=O)Cn4cnnn4)[C@H]3SC2)s1` [cefazolin] showed a melting point of 190 °C. Work on `Oc1cc2ccccc2cc1O` [2,3-dihydroxynaphthalene] yielded a melting point of 164 °C. With `C[C@]12CCC(=O)C=C1CC[C@@H]1[C@@H]2[C@@H](O)C[C@@]2(C)[C@H]1CC[C@]2(O)C(=O)CO` [Hydrocortisone] the melting point was 218 °C. In the case of `Nc1cc(Cl)ccc1O` [5-chloro-2-hydroxyaniline], the melting point was 143 °C. For `CC(C)C(N)=O` [isobutyramide], the melting point was 129 °C. Work on `O=C(O)c1cccc2ccccc12` [1-Naphthoic acid] yielded a melting point of 162 °C. Compound `O=c1c(O)c(-c2ccc(O)cc2)oc2ccccc12` [3,4'-dihydroxyflavone] has a melting point of 286 °C. `OC[C@H]1O[C@H](O[C@H]2[C@H](O)[C@@H](O)[C@@H](O[C@H]3[C@H](O)[C@@H](O)C(O)O[C@@H]3CO)O[C@@H]2CO)[C@H](O)[C@@H](O)[C@@H]1O` (stereo not given in full) gave a melting point of 133 °C. Work on `C=CCC1(CC(C)C)C(=O)NC(=O)NC1=O` [butalbital] yielded a melting point of 140 °C. For `CC(=O)Oc1cccc(C(C)=O)c1` [3-acetoxy_acetophenone], the melting point was 44 °C. `COC(=O)c1ccccc1OC(C)=O` [methyl_2-acetoxybenzoate] gave a melting point of 52 °C. In the case of `COC(=O)CCC(C)C1CCC2C3C(=O)C(Br)C4CCCCC4(C)C3CCC12C` (stereo not given) [methyl 6-bromo-7-oxocholan-24-oate], the melting point was 124 °C. `CC(N)(CO)CO` [2-Amino-2-methylpropane-1,3-diol] showed a melting point of 111 °C. For `CCCCC(C)=O` [2-hexanone], the melting point was -56 °C. With `COC(=O)[C@H](CCC(=O)O)NC(=O)OCc1ccccc1` [N-benzyloxycarbonyl-l-glutamic acid 1-methyl ester] the melting point was 67 °C. With `COc1ccc2c(c1)c1c3n2CCN(C)C3=NCC1` [metralindole] the melting point was 164 °C. For `C=CCOc1ccc(CC(=O)O)cc1Cl` [Alclofenac], the melting point was 92 °C. `COC(=O)/C=C/C(=O)OC` [Dimethyl (2E)-but-2-enedioate] showed a melting point of 104 °C. With `N#CCc1nn(-c2ccccc2)c(N)c1C#N` [5-amino-4-cyano-3-cyanomethyl-1-phenyl-1h-pyrazole,] the melting point was 164 °C. Compound `CCCCCCCCCCCC` [N-dodecane] has a melting point of -10 °C. Work on `FC(F)(F)c1cc(-n2cccc2)cc(C(F)(F)F)c1` [1-[3,5-bis(trifluoromethyl)phenyl]pyrrole] yielded a melting point of 42 °C. With `CCCSc1ccc2[nH]c(NC(=O)OC)nc2c1` [albendazole] the melting point was 209 °C. For `C=CCI` [allyl iodide], the melting point was -99 °C. Work on `CCCCC(=O)O` [valeric acid] yielded a melting point of -34 °C. Compound `CC(=O)c1cccc(Br)c1` [3'-bromoacetophenone] has a melting point of 8 °C. `N#Cc1cc(I)c(O)c(I)c1` [3,5-diiodo-4-hydroxybenzonitrile] showed a melting point of 204 °C. With `CN(C)c1ccc(/C=C2\SC(=S)NC2=O)cc1` [5-(4-dimethylaminobenzylidene)rhodanine] the melting point was 278 °C. Compound `Cc1ccc(C)c(N)c1` [2,5-Xylidine] has a melting point of 15.5 °C. Compound `CCC(=O)c1ccc(Cl)cc1` [1-(4-Chlorophenyl)propan-1-one] has a melting point of 35.5 °C. `CC(=O)C=C(C)C` [mesityl oxide] gave a melting point of -59 °C. `CC1CC1` [cyclopropylmethane] gave a melting point of -177 °C. For `CCNc1nc(NC(C)(C)C)nc(SC)n1`, the melting point was 104 °C. `Cc1cc2cc(Cl)ccc2[nH]1` [5-chloro-2-methylindole] gave a melting point of 112 °C. With `CCOc1ccc(C=O)cc1` [4-ethoxybenzaldehyde] the melting point was 14 °C. For `Oc1ccc(Cl)c(Cl)c1` [3,4-dichlorophenol], the melting point was 68 °C and 66 °C. Work on `CCCCCCCCCCCCCCCCCCCC(=O)OC` [methyl eicosanoate] yielded a melting point of 48 °C. With `CN(C)c1ccc(C=O)cc1` [4-(Dimethylamino)benzaldehyd] the melting point was 75 °C. In the case of `COC(=O)c1ccc(Cl)cc1` [methyl_4-chlorobenzoate], the melting point was 44 °C. Work on `O=[N+]([O-])c1cc(C=Nc2ccccc2)ccc1C=Nc1ccccc1` [N,N'-[(2-nitrobenzene-1,4-diyl)di(E)methylylidene]dianiline] yielded a melting point of 134 °C. `O=C(O)c1cc(I)ccc1Cl` [2-chloro-5-iodobenzoic acid] showed a melting point of 159 °C. With `CN1C(C(=O)Nc2ccccn2)=C(O)c2sccc2S1(=O)=O` [tenoxicam] the melting point was 211 °C. Compound `CCCCCCCCCCCCCC(N)=O` [N-tetradecanamide] has a melting point of 106 °C. `N#Cc1ccc(Cc2ccccc2)cc1` [p-benzyl_benzonitrile] gave a melting point of 51 °C. In the case of `Cc1ccccc1/N=N/c1ccc(/N=N/c2c(O)ccc3ccccc23)c(C)c1`, the melting point was 199 °C. Compound `N#CCS(=O)(=O)c1ccc(F)cc1` [4-fluorophenylsulfonylacetonitrile] has a melting point of 91 °C. For `Clc1c2ccccc2cc2ccccc12` [9-chloroanthracene], the melting point was 104 °C. `Cc1cc(CC(=O)O)n(C)c1C(=O)c1ccc(Cl)cc1` [Zomepirac] gave a melting point of 178 °C.
